Assay results: article PMC10703884, “Targeting the COMMD4–H2B protein complex in lung cancer” (British Journal of Cancer, 2023)
“Also recorded” adds a separate entry of the source. No end group written: not given here.

Assays:
NSCLC cells [1] = experiment: Immunofluorescence γH2AX and MDC1 foci, NSCLC cells; type: cell-based; conditions: 6 Gy IR, 0.5 to 2 h post-IR, 50 cells per condition, three independent experiments
Method: (§1) For siRNA transfections, cells were transfected with negative control or COMMD4 siRNA #2 (CCAUGUCCCUCUCAGCAGA[dT][dT] MISSION® siRNA, Sigma-Aldrich) using RNAiMax (Life Technologies) as previously described and samples were analysed 48 to 72 h post-transfection. The H2B wild-type (FLAG-H2BWT) and mutant (FLAG-H2BMUT1) expression constructs were generated with the 10-amino acid peptide and the corresponding mutant cloned into the expression vector pCDNA3.1/(+)-N-DYK containing an N-terminal FLAG tag and a C-terminal nuclear localisation signal (AAKRVKLDS) (GenScript). A70K FLAG-COMMD4 expression construct was generated by mutating the corresponding COMMD4-FLAG construct to harbour an A70K mutation (GenScript). Cells were mock-transfected, or transfected with FLAG-H2BWT/FLAG-H2BMUT1, or COMMD4-FLAG/A70K with FuGENE® HD (Promega) using the manufacturer’s protocol and analysed 24 h post-transfection.
NSCLC and control cells transfected with siRNA or H2B plasmids were grown in optical glass bottom 96-well plates (Cellvis). Post-treatment, cells were pre-extracted with ice-cold extraction buffer (20 mM HEPES (pH 8), 20 mM NaCl, 5 mM MgCl2, 1 mM ATP, 0.5% NP40), to remove the soluble proteins and processed as previous. Images were captured using a Delta Vision PDV microscope 100x/1.42 Oil objective (Applied Precision, Inc). All immunofluorescence figures were assembled using Adobe Photoshop. High-content microscopy was performed using the InCell Analyzer 6500 Imaging System (GE Healthcare Life Sciences). Images were analysed using the InCarta Image Analysis software (GE Healthcare Life Sciences) where a minimum of 50 nuclei were quantified per experiment.
Fig. 4 Induction of DSBs in NSCLC and control cells. a Immunofluorescence staining of H1299 NSCLC cells transfected with control or COMMD4 siRNA #2 and FLAG-H2BWT or FLAG-H2BMUT1 is shown. […]
independent experiments where 50 cells were quantified per condition. γH2AX is shown in […]
mean ± SD from three independent experiments where 50 cells were quantified per condition.

HBEC3-KT cells = experiment: Annexin V-FITC / propidium iodide apoptosis, HBEC3-KT cells; type: cell-based, Human; conditions: flow cytometry, three independent experiments
Method: as §1, with “A70K FLAG-COMMD4 expression construct was generated by mutating the corresponding COMMD4-FLAG construct to harbour an A70K mutation (GenScript).” left out
The Annexin V-FITC apoptosis kit (United Bioresearch, ALX-850-020-K101, Enzo Life Sciences, Farmingdale, NY, USA) was used to measure viable and apoptotic cells, as previously described. […] CytExpert 2.0 software was used for data acquisition and analysed using the FlowJo v10 software.
Fig. 5 Induction of mitotic catastrophe and apoptosis in NSCLC cells. a Emerin and phalloidin staining respectively in three NSCLC and control HBEC3-KT cells. […] Asterix (*) denotes *P < 0.05 and ** P < 0.005 from 100 cells counted. […] The live cells were stained with Annexin V-FITC and propidium iodide and analysed by flow cytometer. […]

NSCLC cells [2] = experiment: Mitotic catastrophe (emerin and phalloidin staining), NSCLC cells; type: cell-based; conditions: 100 cells counted
Method: as §1, with “A70K FLAG-COMMD4 expression construct was generated by mutating the corresponding COMMD4-FLAG construct to harbour an A70K mutation (GenScript).” left out
NSCLC cells were grown in 96-well plates as above and stained with anti-emerin antibody and phalloidin. Mitotic catastrophe was scored as previous. A minimum of 100 cells for each experimental condition were assessed to determine the percentage of aberrant nuclei.
As previously determined, in this study, we used two markers to determine mitotic catastrophe: emerin staining of the nuclear envelope and phalloidin staining of the F-actin cytoskeleton. […] We subsequently measured apoptosis by staining for Annexin V and propidium iodide via flow cytometry in FLAG-H2B WT, FLAG-H2BMUT1 and mock-transfected control and NSCLC cells (Fig. 5c, d). […]

FLAG-H2BWT: 10-amino acid peptide cloned into expression vector containing an N-terminal FLAG tag and a C-terminal nuclear localisation signal ({FLAG}-SFVNDIFERIAAKRVKLDS)
γH2AX and MDC1 (DNA repair) foci (NSCLC cells [1]): significantly more DNA repair foci
induction of apoptosis (HBEC3-KT cells): no significant induction of apoptosis
aberrant nuclei / mitotic catastrophe (NSCLC cells [2]): significantly more aberrant nuclei, indicative of mitotic catastrophe induction, relative to FLAG-H2BMUT1; also recorded: significantly more mitotic catastrophe than control cells
